Measured values: ChEMBL document CHEMBL5113380, “Functionalized quinoxalinones as privileged structures with broad-ranging pharmacological activities” (Eur J Med Chem, 2022)
In brackets after ≈: the same amount, converted by molar mass. Each block holds one compound with its values, some of them ahead of it.

How the values were obtained:
[1] = biological target: Human immunodeficiency virus type 1 reverse transcriptase (Human immunodeficiency virus 1) (UniProt Q72547); assay: Inhibition of HIV1 reverse transcriptase at 10 uM relative to control
[2] = biological target: Human immunodeficiency virus type 1 reverse transcriptase (Human immunodeficiency virus 1) (UniProt Q72547); assay: Inhibition of HIV1 reverse transcriptase at 100 uM relative to control
[3] = biological target: Human immunodeficiency virus type 1 reverse transcriptase (Human immunodeficiency virus 1, UniProt Q72547); assay: Inhibition of HIV1 reverse transcriptase
Homo sapiens = species: Homo sapiens; assay: Inhibition of human TRK relative to control; set-up: concentration or dose not given beside the values; conditions: concentration not given here
[4] = biological target: Prostaglandin G/H synthase 1 (Homo sapiens, UniProt P23219)
[5] = Inhibition of palmitate-induced lipid accumulation in human HepG2 cells relative to control; type: functional
Nakaseomyces glabratus = assay: Antifungal activity against Candida glabrata; type: functional
Candida [6] = assay: Antifungal activity against Candida species isolate 1; type: functional
Candida [7] = assay: Antifungal activity against Candida species isolate 3; type: functional
Candida parapsilosis = assay: Antifungal activity against Candida parapsilosis; type: functional; conditions: Lodderomyces parapsilosis
Candida tropicalis = assay: Antifungal activity against Candida tropicalis; type: functional
Pichia kudriavzevii = assay: Antifungal activity against Candida krusei; type: functional
Staphylococcus aureus [8] = assay: Antibacterial activity against Staphylococcus aureus; type: functional
Candida albicans = assay: Antifungal activity against Candida albicans; type: functional
Candida [9] = assay: Antifungal activity against Candida species isolate 2; type: functional
[10] = Inhibition of ALR1 (unknown origin) relative to control; set-up: concentration or dose not given beside the values; conditions: Homo sapiens; concentration not given here
[11] = Antioxidant activity assessed as DPPH radical scavenging activity at 100 uM; type: functional
[12] = Inhibition of ALR2 (unknown origin); set-up: species or system Homo sapiens
[13] = Antioxidant activity assessed as DPPH radical scavenging activity at 50 uM; type: functional
Alpha amylase = biological target: T1, Alpha amylase (Homo sapiens, UniProt P0DUB6); assay: Inhibition of alpha-amylase (unknown origin)
T1 sequence (P0DUB6 whole entry): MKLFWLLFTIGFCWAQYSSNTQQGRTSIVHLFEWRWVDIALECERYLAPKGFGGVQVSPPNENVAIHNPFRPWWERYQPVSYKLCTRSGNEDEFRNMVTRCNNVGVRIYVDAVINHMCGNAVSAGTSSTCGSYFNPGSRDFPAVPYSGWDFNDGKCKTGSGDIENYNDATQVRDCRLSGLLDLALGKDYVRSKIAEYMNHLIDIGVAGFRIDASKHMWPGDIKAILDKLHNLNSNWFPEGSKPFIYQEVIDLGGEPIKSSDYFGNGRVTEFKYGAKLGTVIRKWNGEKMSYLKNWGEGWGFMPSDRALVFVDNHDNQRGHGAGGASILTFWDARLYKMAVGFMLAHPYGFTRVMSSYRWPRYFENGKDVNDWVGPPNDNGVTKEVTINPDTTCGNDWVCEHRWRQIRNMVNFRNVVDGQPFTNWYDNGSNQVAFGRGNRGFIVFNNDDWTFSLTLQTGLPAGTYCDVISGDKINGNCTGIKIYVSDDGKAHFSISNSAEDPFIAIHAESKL

[14] = biological target: T2, Glutamate receptor ionotropic AMPA (Homo sapiens, UniProt P42261+P42262+P42263+P48058); assay: Displacement of [3H]AMPA from AMPA receptor (unknown origin); type: protein-complex assay
[15] = biological target: Glutamate [NMDA] receptor; assay: Displacement of [3H]glycine from NMDA receptor (unknown origin); type: protein-complex assay, Homo sapiens
MCF7 = assay: Antiproliferative activity against human MCF7 cells; type: functional, cell-based
HepG2 = assay: Antiproliferative activity against human HepG2 cells; type: functional, cell-based
[16] = biological target: T2, Glutamate receptor ionotropic AMPA; assay: Displacement of [3H]kainate from AMPA receptor (unknown origin); type: protein-complex assay
[17] = Displacement of [3H]glycine from AMPA receptor (unknown origin); type: protein-complex assay, Homo sapiens
Klebsiella pneumoniae = assay: Antibacterial activity against Klebsiella pneumoniae; type: functional
[18] = Antioxidant activity assessed as DPPH radical scavenging activity; type: functional; conditions: read-out: IC50
Escherichia coli = assay: Antibacterial activity against Escherichia coli; type: functional
Pseudomonas aeruginosa = assay: Antibacterial activity against Pseudomonas aeruginosa; type: functional
Staphylococcus aureus [19] = assay: Antibacterial activity against methicillin-resistant Staphylococcus aureus; type: functional
[20] = Antioxidant activity assessed as DPPH radical scavenging activity at 10 uM; type: functional

Chain of Prostaglandin G/H synthase 1 (P23219 whole entry): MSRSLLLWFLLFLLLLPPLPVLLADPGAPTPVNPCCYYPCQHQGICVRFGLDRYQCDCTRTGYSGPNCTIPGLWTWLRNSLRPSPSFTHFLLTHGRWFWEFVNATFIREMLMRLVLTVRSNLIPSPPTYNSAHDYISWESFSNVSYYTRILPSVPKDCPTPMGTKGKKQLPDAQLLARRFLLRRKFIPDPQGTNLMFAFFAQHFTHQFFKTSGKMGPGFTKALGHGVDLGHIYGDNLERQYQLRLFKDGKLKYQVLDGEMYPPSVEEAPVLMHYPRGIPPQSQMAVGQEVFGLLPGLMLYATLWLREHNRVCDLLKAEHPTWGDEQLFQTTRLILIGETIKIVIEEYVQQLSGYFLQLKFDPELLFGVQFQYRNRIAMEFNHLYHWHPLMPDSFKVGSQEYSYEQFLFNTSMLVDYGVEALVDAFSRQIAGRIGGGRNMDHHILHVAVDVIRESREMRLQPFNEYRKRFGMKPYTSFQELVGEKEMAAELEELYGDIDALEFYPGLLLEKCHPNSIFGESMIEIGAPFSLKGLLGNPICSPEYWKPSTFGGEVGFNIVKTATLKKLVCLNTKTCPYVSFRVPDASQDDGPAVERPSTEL

SMILES: Cc1cccc2c1NC[C@H](C)N2
inhibition (INH) [5]: 30%

SMILES: Cc1ccc2c(c1)N[C@H](C)C(=O)N2
inhibition (INH) [5]: 50%

SMILES: O=c1[nH]c2ccc(C(F)(F)F)cc2nc1CBr
MIC (Nakaseomyces glabratus): 62.5 µg/mL (≈ 204 µM) | MIC (Candida [6]): 15.6 µg/mL (≈ 50.8 µM) | MIC (Candida [7]): 62.5 µg/mL (≈ 204 µM) | MIC (Candida parapsilosis): 250 µg/mL (≈ 814 µM) | MIC (Candida tropicalis): > 500 µg/mL | MIC (Pichia kudriavzevii): 62.5 µg/mL (≈ 204 µM) | MIC (Staphylococcus aureus [8]): 31.2 µg/mL (≈ 102 µM) | MIC (Candida albicans): 31.2 µg/mL (≈ 102 µM) | MIC (Candida [9]): 62.5 µg/mL (≈ 204 µM)

SMILES: CN1CCNc2ccccc21
inhibition (INH) [5]: 30%

SMILES: COc1ccc2nc(/C=C/c3ccc(O)cc3)c(=O)n(CC(=O)O)c2c1
inhibition [10]: 37.6% | Activity [11]: 59.2% | IC50 [12]: 0.059 µM | Activity [13]: 34.3%

SMILES: Cc1nn(-c2ccccc2)c(N2CCNCC2)c1/C=N/Nc1nc2ccccc2nc1O
inhibition (Homo sapiens): 20% | IC50 [4]: > 50 µM

SMILES: Cc1cccc2c1NCCN2
inhibition (INH) [5]: 30%

SMILES: CC(C)COC(=O)N1CC(=O)Nc2ccccc21
inhibition [1]: 20% | inhibition [2]: 46%

SMILES: Cc1cc2[nH]c(=O)c(=O)n(CP(=O)(O)O)c2cc1C
Ki [14]: 1.21 µM | Ki [15]: 5.28 µM

SMILES: O=C1CSC(c2ccc(F)cc2)N1c1ccc2nc(Cc3ccc(O)cc3)c(=O)[nH]c2c1 (configuration not stated)
MBC (Klebsiella pneumoniae): 87 µM (≈ 38.9 µg/mL) | IC50 [18]: 239 µM | MBC (Escherichia coli): 32.6 µM (≈ 14.6 µg/mL) | MBC (Pseudomonas aeruginosa): 21.7 µM (≈ 9.71 µg/mL) | MBC (Staphylococcus aureus [19]): 87 µM (≈ 38.9 µg/mL) | MBC (Staphylococcus aureus [8]): 43.5 µM (≈ 19.5 µg/mL) | MBC (Candida albicans): 65.2 µM (≈ 29.2 µg/mL)

SMILES: COC(=O)c1sc(Cl)cc1S(=O)(=O)N1c2cc(Cl)ccc2NC(=O)C1C (configuration not stated)
IC50 [3]: 0.07 µM

SMILES: O=c1[nH]c2ccc(C(F)(F)F)cc2nc1C(F)(F)F
MIC (Nakaseomyces glabratus): 250 µg/mL (≈ 886 µM) | MIC (Candida [6]): 125 µg/mL (≈ 443 µM) | MIC (Candida [7]): 125 µg/mL (≈ 443 µM) | MIC (Candida parapsilosis): 125 µg/mL (≈ 443 µM) | MIC (Candida tropicalis): 250 µg/mL (≈ 886 µM) | MIC (Pichia kudriavzevii): 250 µg/mL (≈ 886 µM) | MIC (Candida albicans): 8 µg/mL (≈ 28.4 µM) | MIC (Candida [9]): 125 µg/mL (≈ 443 µM)

SMILES: CC(C)Cc1nc2ccccc2[nH]c1=O
inhibition [1]: 15% | inhibition [2]: 73% | IC50 [3]: 23 µM

SMILES: CC(C)CCN1CCc2c(Br)cc3nc(O)c(O)nc3c2C1
IC50 [16]: 0.68 µM | IC50 [17]: > 10 µM | IC50 [14]: 9.7 µM

SMILES: CN1CCc2c(c([N+](=O)[O-])cc3[nH]c(=O)c(=O)[nH]c23)C1
IC50 [16]: 0.38 µM | IC50 [17]: 4.9 µM | IC50 [14]: 0.29 µM

SMILES: CC(C)COC(=O)N1c2ccccc2NC(=O)[C@H]1CC(C)C
inhibition [1]: 22% | inhibition [2]: 51% | IC50 [3]: 67 µM

SMILES: CN1CCc2c([N+](=O)[O-])cc3[nH]c(=O)c(=O)[nH]c3c2C1
IC50 [16]: 0.368 µM | IC50 [17]: 0.37 µM | IC50 [14]: 0.063 µM

Second part, led by results:

inhibition [1]: 91% | inhibition [2]: 99% | IC50 [3]: 0.63 µM
SMILES: CCC(=O)N1CC(=O)Nc2ccccc21

inhibition (Homo sapiens): 83% | IC50 [4]: > 50 µM
SMILES: Cc1nn(-c2ccccc2)c(N2CCN(C)CC2)c1/C=N/Nc1nc2ccccc2nc1O

inhibition (Homo sapiens): 74% | IC50 [4]: > 50 µM
SMILES: Cc1nn(-c2ccccc2)c(N2CCCCC2)c1/C=N/Nc1nc2ccccc2nc1O

IC50 (Alpha amylase): 395.84 µM
SMILES: O=c1[nH]c2ccccc2nc1N/N=C/c1cccs1

Ki [14]: 2.1 µM | Ki [15]: 0.11 µM
SMILES: O=C(O)Cn1c(=O)c(=O)[nH]c2cc(Cl)c(Cl)cc21

IC50 (MCF7): 11.3 µM | IC50 (HepG2): 23.4 µM | inhibition (Homo sapiens): 78%
SMILES: Cc1nn(-c2ccccc2)c(SCCCO)c1/C=N/Nc1nc2ccccc2[nH]c1=O

IC50 [16]: 0.43 µM | IC50 [17]: > 10 µM | IC50 [14]: 2.5 µM
SMILES: CCC(C)N1CCc2c(Br)cc3nc(O)c(O)nc3c2C1 (configuration not stated)

MIC (Nakaseomyces glabratus): > 125 µg/mL | MIC (Candida [6]): 62.5 µg/mL (≈ 204 µM) | MIC (Candida [7]): < 3.5 µg/mL | MIC (Candida parapsilosis): > 125 µg/mL | MIC (Candida tropicalis): 125 µg/mL (≈ 407 µM) | MIC (Pichia kudriavzevii): 125 µg/mL (≈ 407 µM) | MIC (Staphylococcus aureus [8]): 62.5 µg/mL (≈ 204 µM) | MIC (Candida albicans): > 125 µg/mL
SMILES: O=c1[nH]c2cc(C(F)(F)F)ccc2nc1CBr

IC50 [18]: 78.9 µM | inhibition [10]: 34.3% | IC50 [12]: 0.107 µM
SMILES: O=c1c(/C=C/c2ccc(O)cc2)nc2ccc(F)cc2n1-c1cnn(O)c1
Activity [20]: 18.7% | Activity [11]: 65.3% | Activity [13]: 31.5%

IC50 [16]: 2.9 µM | IC50 [17]: > 100 µM | IC50 [14]: > 100 µM
SMILES: CCC(C)CN1CCc2c(Br)cc3nc(O)c(O)nc3c2C1 (configuration not stated)
